Where a name gives a salt, the structure may show the parent alone. Read-outs that look alike come from different tables or passages of the source.
Key:
larvae = assay: larvicidal activity assay; type: in vivo; details: for pest or weed control at 100 ppm: read-out: % Lethality at 100 ppm; for pest or weed control at 0.25 %: read-out: % Lethality with 0.25% compound conc.
Method: A 6-well plate (Corning Life Sciences, Tewksbury, Mass.) is used to test a compound's larvicidal activity. […] After a 24 hour exposure, the number of dead larvae are counted and recorded.
The results are presented in Table 17 as % lethality (the number of dead larvae divided by the total number of larvae).

[1] = test system: bed bugs (Cimex lectularius); assay: bed bug repellency assay; type: in vivo; details: for % Rep (bed bug repellency): compound or combination on filter paper harborage, ten bed bugs
Method: Compounds and combinations of compounds of the present invention were assayed for their ability to repel bed bugs (Cimex lectularius) using a bed bug repellency assay. This assay takes advantage of the bed bug's natural tendency to seek harborage. Two petri dishes were obtained and the inner areas of each were sanded down (leaving the perimeter smooth.) Talc was applied on the perimeter and on the inside walls of the petri dishes with a small paint brush to prevent bed bugs from escaping. A cut off top portion of a solo bathroom cup was placed upside down in the center of one petri dish. A large plastic secondary container was gathered and a paper towel was laid down inside the bottom. The petri dish was then placed inside and ten bed bugs were placed inside the cut off portion of the solo cup. Next, two pieces of filter paper were cut down the middle to yield 4 equally sized halves. 3 pieces were placed inside a glass dish ([…]) and the remaining piece was placed in a separate dish. All 4 pieces were folded down the middle to create a “tent” or “harborage” when laid such that the folded crease faced up. 100 microliters of isopropyl alcohol was pipetted into 3 pieces of filter paper (all housed in the first glass dish.) In a separate 4 ml vial, 90 microliters of isopropyl alcohol was combined and vortexed with 10 microliters of the compound or compound combination being tested. 100 microliters of this solution [comprising a total of 100 mg of compound(s)] was pipetted onto the filter paper in the separate dish. All filter papers were then allowed to dry. Once dry, experiments were conducted first with two filter paper halves comprising only the isopropyl alcohol (control experiment) and then with the remaining filter paper halves [one with only isopropyl alcohol and one comprising the test compound(s).] Filter paper halves were placed on opposing sides of experimental petri dishes and bed bugs were allowed to move freely within the dishes for 5 minutes. Movement of bed bugs beneath each filter paper tent was recorded. […] In the Table, “Rep” refers to repellency and “Cmpd” refers to compound.

female mosquitoes = assay: whole plant or invertebrate; details: 2 h; for mortality at 200 µg/mL: read-out: % mortality with 0.2 mg/ml; for mortality at 2000 µg/mL: read-out: % mortality with 2 mg/ml
cpA neurons [2] = assay: extracellular single-sensillum electrophysiology: activation of cpA neuronal activity; details: for Class: Table 6, single compounds, increase over baseline cpA neuronal activity; for Comp B Class / Comp A Class: Table 9; for Comp B Class: component B tested individually; for Comp A Class: component A tested individually; for Class B (activator class of the individual component): Table 15, single component alone, Mod Actv; for Class (activator class of the individual component): Actv = activator
cpA neurons [3] = assay: extracellular single-sensillum electrophysiology: inhibition of CO2-responsive (cpA) neuronal activity; details: for Class: Table 10, single compounds, percent reduction in cpA activity compared to baseline; for Class (inhibitor class of the individual component): Inh = inhibitor
[4] = 0.25% compound, 24 hour exposure, dead larvae / total larvae
[5] = 100 ppm compound, 24 hour exposure, dead larvae / total larvae
[6] = Table 13, single component alone
[7] = Table 16, single component alone

SMILES	% Rep (bed bug repellency) [1]	mortality at 200 µg/mL (female mosquitoes)	mortality at 2000 µg/mL (female mosquitoes)	pest or weed control at 0.25 % (larvae; [4])	pest or weed control at 100 ppm (larvae; [5])	further results
O=C/C=C/c1ccccc1 [OLI0065, trans-cinnamaldehyde]	100%	0%	0%			pest or weed control at 100 ppm (larvae; 24 h): 0%; pest or weed control at 0.25 % (larvae; 24 h): 100%; Class (cpA neurons [2]): Mild Activator (mild activators yield an increase in neuronal activity that is between 20 and 40 spk/sec over baseline neuronal activity)
COc1ccccc1O [OLI0012, guaiacol]	100%	0%	0%	100%	0%	Class (cpA neurons [2]): Strong Activator (strong activators yield an increase in activity that is >60 spk/sec over baseline neuronal activity)
CCC(=O)OCC=Cc1ccccc1 [OLI0109, cinnamyl propionate]	41%	0%	100%	100%	0%	
CC1CCC(C(C)C)C(O)C1 (stereo not drawn) [OLI0115, Menthol]	60%	0%	0%			pest or weed control at 100 ppm (larvae; 24 h): 0%; pest or weed control at 0.25 % (larvae; 24 h): 100%
COC(=O)/C=C/c1ccccc1 [OLI0114, methyl trans-cinnamate]	70%	0%	100%	100%	0%	
O=CCc1ccccc1 [OLI0028, phenylacetaldehyde]	50%	0%	0%			Class (cpA neurons [2]): Moderate Activator (Moderate activators yield an increase in neuronal activity that is between 40 and 60 spk/sec over baseline neuronal activity); Comp B Class (cpA neurons [2]): Mod
CCCC(O)CC(=O)OCC (stereo not drawn) [OLI0021, ethyl 3-hydroxyhexanoate]	100%	0%	75%	0%	0%	Class (cpA neurons [2]): Moderate Activator (Moderate activators yield an increase in neuronal activity that is between 40 and 60 spk/sec over baseline neuronal activity); Comp A Class (cpA neurons [2]): Mod; Comp B Class (cpA neurons [2]): Mod; Class B (activator class of the individual component) (cpA neurons [2]): Mod
CCCCC=O [OLI0066, valeraldehyde]	33%	0%	0%	35%	0%	Class (cpA neurons [2]): Mild Activator (mild activators yield an increase in neuronal activity that is between 20 and 40 spk/sec over baseline neuronal activity)
CC(C)=CCC/C(C)=C/CO [geraniol]						ability to repel bed bugs ([1]; 100 microliters solution on filter paper tent, 5 minutes): surprisingly strong ability to repel bed bugs
CCCCCCOC(=O)CCC [OLI0119, hexyl butyrate]	59%	0%	0%	15%	0%	
C=CCOC(=O)C=Cc1ccccc1 [OLI0104, allyl cinnamate]	54%	0%	45%	100%	15%	
CCOC(=O)C=Cc1ccccc1 [OLI0110, ethyl cinnamate]	59%	0%	100%	100%	0%	
O=C(C=Cc1ccccc1)OCc1ccccc1 [OLI0120, benzyl cinnamate]	21%	0%	0%	0%	0%	
Cc1cnc(C)c(C)n1 [OLI0014, 2,3,5-trimethylpyrazine]	59%	0%	0%	21%	0%	Class (cpA neurons [2]): Moderate Activator (Moderate activators yield an increase in neuronal activity that is between 40 and 60 spk/sec over baseline neuronal activity); Comp A Class (cpA neurons [2]): Mod; Comp B Class (cpA neurons [2]): Mod; Class B (activator class of the individual component) (cpA neurons [2]): Mod
CCOC(=O)c1ccco1 [OLI0009, ethyl 2-furoate]	41%	0%	0%	100%	0%	Class (cpA neurons [2]): Strong Activator (strong activators yield an increase in activity that is >60 spk/sec over baseline neuronal activity)
Cc1nccnc1C [OLI0015, 2,3-dimethylpyrazine]	77%	0%	0%	0%	0%	Class (cpA neurons [2]): Moderate Activator (Moderate activators yield an increase in neuronal activity that is between 40 and 60 spk/sec over baseline neuronal activity); Comp A Class (cpA neurons [2]): Mod; Comp B Class (cpA neurons [2]): Mod; Class (activator class of the individual component) (cpA neurons [2]; [6]): Mod; Class B (activator class of the individual component) (cpA neurons [2]): Mod; Class (activator class of the individual component) (cpA neurons [2]; [7]): Mod; activator class of single compound (cpA neurons [2]; single compound): moderate activator (spike rate of 40-60 spk/sec over the baseline activity of the neuron)
CCC(=O)OCCc1ccccc1 [OLI0076, Phenethyl propionate]		0%	100%	100%	0%	Class (cpA neurons [3]): Moderate Inhibitor (moderate inhibitors (reducing activity by 40-60%)); Class (inhibitor class of the individual component) (cpA neurons [3]; [6]): Mod; Class (inhibitor class of the individual component) (cpA neurons [3]; [7]): Mod; inhibitor class of single compound (cpA neurons [3]; single compound): moderate inhibitor (40-60% reduction in neuronal activity as compared to baseline activity of the neuron)
CC/C=C\CCOC(C)=O [OLI0073, cis-3-hexenyl acetate]		0%	0%	95%	0%	Class (cpA neurons [3]): Moderate Inhibitor (moderate inhibitors (reducing activity by 40-60%)); Class (inhibitor class of the individual component) (cpA neurons [3]; [6]): Mod
CCC(=O)OC/C=C/c1ccccc1 [OLI0105, trans-cinnamyl propionate]	35%	0%	85%	100%	0%	
COC(=O)C=Cc1ccccc1 [OLI0113, methyl cinnamate]	68%	0%	100%	100%	0%	
COc1ncccc1C						effect on CO2-receptor activity (FIG. 1) (cpA neurons [3]; 1% concentration in paraffin oil): inhibitor
O=CCc1ccccc1 [OLI0121]	100%					
O=COCC=Cc1ccccc1 [OLI0107, cinnamyl formate]	100%	0%	100%	100%	0%	
CC12CCC(CC1)C(C)(C)O2 [OLI0087, Eucalyptol]						Class (cpA neurons [3]): Mild Inhibitor (mild inhibitors (reducing activity by 20-40%))
CCC/C=C\CCOC(C)=O [OLI0078, (Z)-hept-3-enylacetate]						Class (cpA neurons [3]): Mild Inhibitor (mild inhibitors (reducing activity by 20-40%)); Class (inhibitor class of the individual component) (cpA neurons [3]; [6]): Mild; Class (inhibitor class of the individual component) (cpA neurons [3]; [7]): Mild
COC1=C(C)OC(C)C1=O (stereo not drawn) [OLI0081, 2,5-dimethyl-4-methoxy-3(2H) furanone]						Class (cpA neurons [3]): Mild Inhibitor (mild inhibitors (reducing activity by 20-40%))
CCCCCCC(=O)OCC [OLI0086, Ethylheptanoate]						Class (cpA neurons [3]): Mild Inhibitor (mild inhibitors (reducing activity by 20-40%))

Source: patent publication US20150216182A1, “COMPOSITIONS AND METHODS OF THE ATTRACTION AND REPULSION OF INSECTS” (Olfactor Laboratories, Inc., priority 2012, published 2015)
